# Key:
# tau-tau binding [1] = biological target: tau-tau binding (Homo sapiens, UniProt P10636); assay: Cell-based assay I ('T40/12 kD'), production of the 12 kD fragment; settings: for activity as inhibitor of tau-tau aggregation: T40/12 kD cell assay; for Ki: apparent KI calculated from T40/12 kD cell data, assumes intracellular tau 500 nM, tau-tau Kd 22 nM; for IC50: concentration at which production of the 12 kD band from full-length tau is reduced to 50%, read-out: B50
# Protocol: Production of the 12 kD fragment can be blocked in a dose-dependent manner by tau-aggregation inhibitors. Indeed the quantitation of inhibitory activity of compounds with respect to proteolytic generation of the 12 kD fragment within cells can be described entirely in terms of the same parameters which describe inhibition of tau-tau binding in vitro. That is, extent of proteolytic generation of the 12 kD fragment within cells is determined entirely by the extent to tau-tau binding through the repeat domain. The availability of the relevant proteases within the cell is non-limiting.
# The process is described in more detail in prior filed unpublished application GB 0101049.5.
# The observed cell data for production of the 12 kD band can be fitted closely (i.e. observed vs. predicted correlation coefficient >0.9), to a standard function describing inhibition of tau-tau binding in vitro. To obtain this fit, two assumptions need to be made, which are consistent with results from other cell-based and in vitro studies: • 1) the intracellular concentration of tau is approximately 500 nM; • 2) the tau-tau binding affinity is 22 nM.
# When these assumptions are made, the function: Activity=[tau]([tau]+Kd*(1+[inhibitor]/KI)) can be solved by standard numerical methods to derive a value for apparent KI. Comparison with values observed for tau-tau binding in vitro at a tau concentration of 500 nM, where the Kd value for tau-tau binding is known to be 22 nM confirm that the sole determinant of production of the proteolytically stable core tau unit of the PHF within the cell is simply the extent of tau-tau binding.
# A further parameter, B50, has been established in respect of compounds exemplified herein. The B50 value is the determined concentration of test compound used in the cell assay at which relative production of the 12 kD band from full-length tau was reduced to 50% of that observed in the absence of the compound. This provides an indication of the tissue concentration which would be required to achieve the corresponding activity in vivo. In general there is an approximately linear relationship between apparent KI value and B50 value, which can be used to derive the KI value: B50(μM)=0.0217×KI(nM) Cell-based Assay II(‘ssK40/25 kD’)
# fibroblast cells (3T6) = assay: Toxicity in the T40/12 kD cell assay (lactate dehydrogenase kit); type: cell-based; settings: for LD50: cellular LD50, cell numbers after 24 hrs exposure; for Rxindx: therapeutic index, RxIndx=LD50/B50
# Protocol: Toxicity of the compounds described above was assessed in the T40/12 kD cell assay used to assess activity. Toxicity was measured by cell numbers after 24 hrs exposure to the compound using a lactate dehydrogenase assay kit TOX-7(Sigma Biosciences) according to the manufacturer's instructions after lysis of remaining cells. Alternatively a kit from Promega UK (CytoTox 96) was used, again according to the manufacturer's instructions.
# tau-tau binding [2] = assay: In vitro tau-tau binding assay (WO 96/30766)
# Protocol: FIG. 5 is a schematic representation of the in vitro aggregation assay of WO 96/30766 in which binding of two truncated units is measured. The species terminating at […] (“a”) is first coated on the ELISA plate (in sodium carbonate buffer: 50 mM, pH 9.6). Next, a second truncated tau species terminating at […] (“e”) is incubated in various buffer conditions. […] This is described in detail in WO 96/30766. Briefly, a fragment of tau corresponding to the core repeat domain, which has been adsorbed to a solid phase substrate, is able to capture soluble full-length tau and bind tau with high affinity. This association confers stability against proteolytic digestion of the aggregated tau molecules. The process is self-propagating, and can be blocked selectively by prototype pharmaceutical agents ([…]., et al. (1996), loc. cit). The assay is shown schematically in FIG. 5.
# tau-tau aggregation = biological target: T1, tau-tau aggregation (Homo sapiens, UniProt P10636); assay: Cell-based assay II ('ssK40/25 kD'), proteolytic processing of tau; settings: concentrations of 1-2 μM
# T1 construct: membrane-targeted tau (sstau190-441, “ssK40”); expressed in transfected cells
# Excerpt: The process is described in more detail in prior filed unpublished application GB 0100119.7. […] These cleavage sites correspond to the known boundaries of the PHF-core domain, indicate that their generation within the cell depends on PHF-like tau aggregation through an antiparallel phase-shifted alignment of the repeat domain.
# This is shown schematically in FIG. 7. When expression of full-length tau (T40) is activated under control of an inducible promoter in cells which constitutively express the membrane-targeted ssK40 fragment, T40 is processed proteolytically to give rise to a K40 fragment (N-terminal truncation at ˜αα 185), a K30 fragment (C-terminal truncation ˜αα 390) and a K25 fragment (N-terminal truncation at ˜αα 295).
# tau-tau binding [3] = settings: WO 96/30766 FIGS. 23 and 24; 1 represents binding equivalent to that in the absence of compound; cited from earlier work
# cultured CNS neurones = settings: cited from earlier work
# tau protein = settings: 200 μM; cited from earlier work
# tau-tubulin binding = tau-tubulin binding (Homo sapiens, UniProt P10636); assay: In vitro tau-tubulin binding; settings: at concentrations up to 500 μM (2500:1 molar ratio with respect to tau)
# Sequence of tau-tubulin binding (P10636 whole entry): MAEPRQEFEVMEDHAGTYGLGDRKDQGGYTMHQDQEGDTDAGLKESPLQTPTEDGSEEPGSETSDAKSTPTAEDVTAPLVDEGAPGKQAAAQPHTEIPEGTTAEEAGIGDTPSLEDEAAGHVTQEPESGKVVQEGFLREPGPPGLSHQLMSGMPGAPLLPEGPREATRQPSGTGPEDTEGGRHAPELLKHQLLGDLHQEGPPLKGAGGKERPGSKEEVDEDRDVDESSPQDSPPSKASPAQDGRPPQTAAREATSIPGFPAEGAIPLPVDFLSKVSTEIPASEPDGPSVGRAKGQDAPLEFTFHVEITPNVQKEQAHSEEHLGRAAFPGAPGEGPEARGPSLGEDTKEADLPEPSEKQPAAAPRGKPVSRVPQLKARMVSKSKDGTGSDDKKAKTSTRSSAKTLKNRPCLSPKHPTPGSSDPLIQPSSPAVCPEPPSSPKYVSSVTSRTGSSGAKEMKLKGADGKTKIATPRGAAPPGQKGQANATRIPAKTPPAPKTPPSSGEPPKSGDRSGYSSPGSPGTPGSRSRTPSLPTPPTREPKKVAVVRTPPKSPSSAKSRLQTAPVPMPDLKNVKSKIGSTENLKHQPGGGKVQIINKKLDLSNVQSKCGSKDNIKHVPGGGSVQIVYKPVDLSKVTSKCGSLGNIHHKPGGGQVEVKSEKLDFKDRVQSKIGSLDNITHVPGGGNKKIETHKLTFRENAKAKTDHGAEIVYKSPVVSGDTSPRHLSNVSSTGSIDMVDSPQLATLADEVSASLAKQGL
# T1 sequence (P10636 507-758): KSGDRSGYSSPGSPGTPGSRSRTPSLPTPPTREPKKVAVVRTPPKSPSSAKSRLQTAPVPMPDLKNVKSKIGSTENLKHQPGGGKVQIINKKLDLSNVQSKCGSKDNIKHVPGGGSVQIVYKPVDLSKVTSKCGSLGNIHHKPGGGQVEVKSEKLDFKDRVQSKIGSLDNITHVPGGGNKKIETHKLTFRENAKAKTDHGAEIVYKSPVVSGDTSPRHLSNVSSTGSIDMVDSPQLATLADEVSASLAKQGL
# Sequence of tau-tau binding (Homo sapiens, UniProt P10636) (P10636 1-441 isoform P10636-8): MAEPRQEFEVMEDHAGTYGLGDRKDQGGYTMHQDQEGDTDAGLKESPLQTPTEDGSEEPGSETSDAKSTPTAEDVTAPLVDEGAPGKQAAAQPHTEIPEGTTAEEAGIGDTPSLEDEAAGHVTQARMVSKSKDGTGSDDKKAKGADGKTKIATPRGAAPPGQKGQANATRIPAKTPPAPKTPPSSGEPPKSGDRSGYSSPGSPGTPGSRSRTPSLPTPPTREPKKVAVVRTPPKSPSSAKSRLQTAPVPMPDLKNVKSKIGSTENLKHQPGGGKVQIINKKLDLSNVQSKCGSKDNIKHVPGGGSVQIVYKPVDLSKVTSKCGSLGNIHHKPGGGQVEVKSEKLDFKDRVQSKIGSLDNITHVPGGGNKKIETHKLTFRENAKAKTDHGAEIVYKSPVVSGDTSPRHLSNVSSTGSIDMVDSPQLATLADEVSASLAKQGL
Compound,activity as inhibitor of tau-tau aggregation (tau-tau binding [1]),Ki (tau-tau binding [1]),IC50 (tau-tau binding [1]),LD50 (fibroblast cells (3T6)),Rxindx (fibroblast cells (3T6)),also measured
CC(=O)Oc1cc(C)c(OC(C)=O)c2ccccc12 [DH9],highly active,127 nM,2.76 µM,13.09 µM,4.75,
"CC1=CC(=O)c2ccccc2C1=O [Compound K3, 2-methyl-1,4-naphthoquinone]",,128 nM,2.78 µM,44.92 µM,16.17,activity in the in vitro assay (tau-tau binding [2]): did not show activity; conversion K40→K25 relative to that seen without K3 (tau-tau aggregation): about ½; conversion of T40→K25 relative to that seen without K3 (tau-tau aggregation): about ¼; conversion of T40→K40 relative to that seen without K3 (tau-tau aggregation; inferred): about ½; ranking value of inhibitory properties (tau-tau binding [3]): 1.042; survival promoting activity relative to vitamins K1 and K2 (cultured CNS neurones; only at 1 μM): ~10%; effect on tau protein phosphorylation (tau protein): prominent dephosphorylation of tau protein
Cc1cc(OS(=O)(=O)O)c2ccccc2c1OS(=O)(=O)O [DH13],intermediate in activity,263 nM,5.71 µM,30.90 µM,5.41,
"CC1=C(C/C=C(\C)CCC[C@H](C)CCC[C@H](C)CCCC(C)C)C(=O)c2ccccc2C1=O [Compound K1, 2-methyl-3-phytyl-1,4-naphthoquinone]",,,,,,survival promoting effects (cultured CNS neurones; in the range 10 nM—1 μM): prominent survival promoting effects
CC(C)=CCC1=C(O)C(=O)c2ccccc2C1=O [DH1],weak activity,513 nM,11.1 µM,100.97 µM,9.07,
CC(=O)Oc1c(C)c(C)c(OC(C)=O)c2ccccc12 [DH11],reduced activity,674 nM,14.6 µM,12.13 µM,0.83,
"CC1=C(C)C(=O)c2ccccc2C1=O [DH10, 2,3-dimethyl-1,4-naphthoquinone]",,221 nM,4.8 µM,66.71 µM,13.91,
menaquinone [Compound K2],,,,,,"Ki (tau-tau binding [2]; for values less than 100 μM, read-out: apparent KI value in vitro): 942 nM; inhibition of tau-tubulin binding in vitro (tau-tubulin binding): does not inhibit; ranking value of inhibitory properties (tau-tau binding [3]): 0.674"
O=C(O)c1cc(O)c2ccccc2c1O [DH5],had activity,118 nM,2.56 µM,34.29 µM,13.39,

# — patent publication US7605179B2, “Napthoquinone derivatives as inhibitors of tau aggregation for the treatment of alzheimer's and related neurodegenerative disorders” (Wista Laboratories Ltd., priority 2001, dated 2009)
